≈ marks a conversion by molar mass, not a printed value.
What was measured:
[1] = test system: WI 38 (normal fibroblast cells); assay: In vitro cytotoxicity, SRB cell growth assay, normal cells WI 38; format: cell-based, human; conditions: 48 h exposure, non-cytotoxic = IC50 >100 μg/mL; for IC50: Homo sapiens, WI-38, 48 h
Method: (§1) The in vitro cytotoxic activity of the newly synthesized compounds against human breast cell line (MCF7), non-small cell lung cancer NCIH460, CNS cancer SF-268 and WI 38 (normal fibroblast cells) were evaluated using doxorubicin as the reference drug according to the method reported by Skehan et al..
(§2) The newly synthesized compounds were evaluated in vitro against three human cancer cell lines; which are MCF-7 (breast adenocarcinoma), NCI-H460 (non-small cell lung cancer) and SF-268 (CNS cancer), and WI 38 (normal fibroblast cells) were used in this study. MCF-7 was obtained from the European Collection of Cell Cultures (ECACC, Salisbury, UK) but NCI-H460, SF-268 and WI 38 were kindly provided by the National Cancer Institute (NCI, Cairo, Egypt). They grow as monolayer and routinely maintained RPMI-1640 medium supplemented with 5% heat inactivated fetal bovine serum (FBS), 2 mM glutamine and antibiotics (penicillin 100 U/mL, streptomycin 100 µg/mL), at 37 °C in a humidified atmosphere containing 5% CO2. Exponentially growing cells were obtained by plating 1.5 × 10^5 cells/mL for MCF-7 and SF-268, and 0.75 × 10^4 cells/mL for NCI-H460 followed by 24 h of incubation. The effect of the vehicle solvent (DMSO) on the growth of these cell lines was evaluated in all experiments by exposing untreated control cells to the maximum concentration (0.5%) of DMSO used in each assay.
(§3) The effect of compounds on the in vitro growth of human tumor cell lines were evaluated according to the procedure adopted by the National Cancer Institute ([…]) in the “In vitro Anticancer Drug Discovery Screen” that uses the protein-binding dye sulforhodamine B (SRB) to assess cell growth. In the assay protocol, all cells were incubated at 37 °C under humidified atmosphere containing 5% CO2. Briefly, exponentially cells growing in 96-well plates were then exposed for 48 h to five serial concentrations of each compound, starting from a maximum concentration of 150 μg/mL. Following this exposure period adherent cells were fixed, washed and stained. The bound stain was solubilized and the absorbance was measured at 492 nm in a plate reader (Bio-Tek Instruments Inc., Power wave XS, Winston, NC, USA). For each test compound and cell line, a dose response curve was obtained and the inhibitory concentration of 50% (IC50), corresponding to the concentration of the compounds that inhibited 50% of the net cell growth was calculated as described elsewhere. Doxorubicin was used as a positive control and tested in the same manner.

[2] = test system: Neisseria gonorrhoeae; assay: Disk diffusion, Neisseria gonorrhoeae; format: cell-based; conditions: Gram negative, 8.0 mm disks, 10 μL
Method: (§4) The disk diffusion method was used for determination of the antimicrobial activity using ampicillin, gentamicin and amphotericin B as reference drugs. The results were recorded for each compounds as the average diameter as inhibition zones (IZ) of bacterial or fungal growth around the discs in mm as shown in Table 2.
(§5) Antimicrobial activities were carried out against highly pathogenic strains; three strains of Gram positive bacteria (Bacillus subtilis, Staphylococcus aureus and Streptococcus faecalis), four strains of Gram negative bacteria (Escherichia coli, Neisseria gonorrhoeae, Pseudomonas aeruginosa and Salmonella typhimurium) and three fungi strains (Aspergillus flavus, Aspergillus fumigatus and Candida albicans) isolated from primary agar plates. Antimicrobial activity of the tested samples was determined using a modified Kriby-Bauer disk diffusion method. Briefly, 100 µL of the test bacteria/fungi were grown in 10 mL of fresh media until they reached a count approximately 10^8 cells/mL for bacteria or 10^5 cells/mL for fungi. 100 µL of microbial suspension was spread onto agar plates corresponding to the broth in which they were maintained. The inoculated plates of bacterial strains were incubated at 35–37 °C for 24–48 h, while the inoculated plates of fungal strains such as A. flavus and A. fumigatus were incubated at 25 °C for 48 h and yeast as C. albicans was incubated at 30 °C for 24–48 h.
(§6) The agar disk diffusion (qualitative) method was used in this investigation for determination of the preliminary antibacterial and antifungal activities. The agar used was Mueller-Hinton agar plates that are rigorously tested for composition and pH. Further the depth of the agar in the plate is a factor to be considered in the disk diffusion method.
(§7) Reference drugs: ampicillin was used as a standard antibacterial drug for Gram positive bacteria, gentamicin as a standard antibacterial drug for Gram negative bacteria and amphotericin B as antifungal standard drug.
(§8) Bacterial and fungal strains were spread onto the surface of the agar plates using sterile cotton swabs. For evaluation of antibacterial activities, blank paper disks (Schleicher & Schuell, Alicante, Spain) with a diameter of 8.0 mm were saturated with 10 μL of tested concentration of the stock solutions. Disks were dried and then placed onto inoculated agar plates. The plates of bacterial strains were reincubated at 35–37 °C for 24–48 h, while the plates of fungal strains such as A. flavus and A. fumigatus were reincubated at 25 °C for 48 h and yeast as C. albicans was reincubated at 30 °C for 24–48 h as mentioned above. […] For an accurate analysis, tests were run in triplicate for each strain to avoid any error as described in Table 2.

[3] = test system: Streptococcus faecalis; assay: MIC by broth dilution, Streptococcus faecalis; format: cell-based; conditions: Enterococcus faecalis, Gram positive, 0.98-125 µg/mL, read-out: Minimum Inhibitory Concentration (MIC) (µg/mL) Streptococcus faecalis
Method: (§9) In this study, MIC (quantitative method) was used for evaluation of the antimicrobial activity of tested compounds. Screening was evaluated in vitro using the Broth dilution method according to CLSI [45]. All the bacteria were incubated and activated at 30 °C for 24 h inoculation into nutrient broth and the fungi were incubated in malt extract broth for 48 h. The compounds were dissolved in DMSO and then diluted using […] Mueller-Hinton broth. […] In each case triplicate tests were performed and the average was taken as the final reading. The tubes were then inoculated with the test organisms, grown in their suitable broth at 37 °C for 24 h for tested microorganisms (1 × 10^8 CFU/mL for bacteria and 1 × 10^6 CFU/mL of fungi), each 5 mL received 0.1 mL of the above inoculum and incubated at 37 °C for 24 h.

[4] = test system: Bacillus subtilis; assay: MIC by broth dilution, Bacillus subtilis; format: cell-based; conditions: Bacillus subtilis, Gram positive, 0.98-125 µg/mL, read-out: Minimum Inhibitory Concentration (MIC) (µg/mL) Bacillus subtilis
Method: as §9

[5] = test system: SF-268 (CNS cancer); assay: In vitro cytotoxicity, SRB cell growth assay, SF-268; conditions: Homo sapiens, SF-268, 48 h, read-out: IC50 (μg/mL) SF-268
Method: as §1, §2, §3

[6] = test system: Staphylococcus aureus; assay: MIC by broth dilution, Staphylococcus aureus; format: cell-based; conditions: Staphylococcus aureus, Gram positive, 0.98-125 µg/mL, read-out: Minimum Inhibitory Concentration (MIC) (µg/mL) Staphylococcus aureus
Method: as §9

[7] = test system: Salmonella typhimurium; assay: Disk diffusion, Salmonella typhimurium; format: cell-based; conditions: Gram negative, 8.0 mm disks, 10 μL
Method: as §4, §5, §6, §7, §8

[8] = test system: Salmonella typhimurium; assay: MIC by broth dilution, Salmonella typhimurium; format: cell-based; conditions: Salmonella enterica, TYPHIMURIUM, Gram negative, 0.98-125 µg/mL, read-out: Minimum Inhibitory Concentration (MIC) (µg/mL) Salmonella typhimurium
Method: as §9

Row | Compound | IC50 [1] [µg/mL] | Inhibition Zone Diameter (IZ) (mm) Neisseria gonorrhoeae [2] | MIC [3] [µg/mL] | MIC [4] [µg/mL] | IC50 [5] [µg/mL] | MIC [6] [µg/mL] | Inhibition Zone Diameter (IZ) (mm) Salmonella typhimurium [7] [mm] | MIC [8] [µg/mL] | IC50 (μg/mL) WI 38 [1] [µg/mL]
1 | NNc1nc2cc(Br)ccc2nc1Cl [Compound 3, 6-Bromo-2-chloro-3-hydrazinylquinoxaline] | 32.2 ± 6.54 (≈ 118 µM) | 14 mm | 15.6 (≈ 57.1 µM) | 1.95 (≈ 7.13 µM) | 30.6 ± 2.39 (≈ 112 µM) | 3.9 (≈ 14.3 µM) | 13 | 1.95 (≈ 7.13 µM) | 
2 | Clc1nc2ccc(Br)cc2n2nnnc12 [Compound 4, 8-Bromo-4-chlorotetrazolo[1,5-a]quinoxaline] | > 100 | 21 mm | 0.98 (≈ 3.44 µM) | 0.98 (≈ 3.44 µM) | 0.06 ± 0.003 (≈ 0.211 µM) | 3.9 (≈ 13.7 µM) | 17 | 0.98 (≈ 3.44 µM) | 
3 | Brc1ccc2nc(N3CCCCC3)c3nnnn3c2c1 [Compound 5a, 8-Bromo-4-(piperidin-1-yl)tetrazolo[1,5-a]quinoxaline] | > 100 | R (R (IZ = 0 mm)) | 62.5 (≈ 188 µM) | 31.2 (≈ 93.8 µM) | 0.02 ± 0.008 (≈ 0.06 µM) | 62.5 (≈ 188 µM) | 14 | 31.2 (≈ 93.8 µM) | 
4 | Brc1ccc2nc(N3CCOCC3)c3nnnn3c2c1 [Compound 5b, 8-Bromo-4-(morpholin-4-yl)tetrazolo[1,5-a]quinoxaline] | > 100 | R (R (IZ = 0 mm)) | 3.9 (≈ 11.6 µM) | 1.95 (≈ 5.82 µM) | 0.06 ± 0.008 (≈ 0.179 µM) | 1.95 (≈ 5.82 µM) | 13 | 1.95 (≈ 5.82 µM) | 
5 | NNc1nc2ccc(Br)cc2nc1NN [Compound 9, 6-Bromo-2,3-dihydrazinylquinoxaline] | 30.6 ± 6.21 (≈ 114 µM) | 28 mm | 0.98 (≈ 3.64 µM) | 0.98 (≈ 3.64 µM) | 38.9 ± 2.63 (≈ 145 µM) | 1.95 (≈ 7.25 µM) | 17 | 0.98 (≈ 3.64 µM) | 
6 | Brc1ccc2c(c1)n1nnnc1c1nnnn21 [Compound 11, 9-Bromoditetrazolo[1,5-a:5′,1′-c]quinoxaline] | > 100 | R (R (IZ = 0 mm)) | 62.5 (≈ 215 µM) | 0.98 (≈ 3.37 µM) | 2.86 ± 4.92 (≈ 9.83 µM) | 7.81 (≈ 26.8 µM) | 18 | 7.81 (≈ 26.8 µM) | 56.85 ± 4.05 (≈ 195 µM)
7 | Cc1cc(C)n(-c2nc3cc(Br)ccc3nc2NN)n1 [Compound 14, 6-Bromo-3-(3,5-dimethyl-1H-pyrazol-1-yl)-2-hydrazinyl quinoxaline] | 58.7 ± 8.65 (≈ 176 µM) | 12 mm | 1.95 (≈ 5.85 µM) | 1.95 (≈ 5.85 µM) | 42.1 ± 5.58 (≈ 126 µM) | 1.95 (≈ 5.85 µM) | 10 | 1.95 (≈ 5.85 µM) | 
8 | NC1=NN(c2nc3ccc(Br)cc3nc2N2N=C(N)CC2=O)C(=O)C1 [Compound 16, 6-Bromo-2,3-bis(3-amino-1H-pyrazol-5(4H)-one)quinoxaline] | 30 ± 2.36 (≈ 74.5 µM) | 11 mm | 31.2 (≈ 77.5 µM) | 1.95 (≈ 4.84 µM) | 49.9 ± 8.64 (≈ 124 µM) | 1.95 (≈ 4.84 µM) | 10 | 1.95 (≈ 4.84 µM) | 

Source: paper PMC6332220, “Synthesis, Characterization and Biological Evaluation of Some Quinoxaline Derivatives: A Promising and Potent New Class of Antitumor and Antimicrobial Agents” (Molecules, 2015)
